Test results published in patent US11091482B2, “Isoxazolyl-carbonyloxy azabicyclo[3.2.1]octanyl compounds as FXR activators” (ARDELYX, INC., priority 2016, dated 2021).

Columns and labels:
[1] = molecular target: human Farnesoid X receptor ligand-binding domain/Gal4 DNA binding domain chimera (Homo sapiens (Human), UniProt Q96RI1); experiment: Cell-based FXR beta-lactamase reporter assay (FXR-UAS-bla HEK 293T cells); conditions: for Emax: HEK-293T, read-out: % Efficacy; for EC50 / FXR pEC50 / % Efficacy: cellular FXR beta-lactamase reporter assay; for EC50 / FXR pEC50: -log EC50; for EC50: read-out: FXR pEC50 (converted); for % Efficacy: extent of activation relative to GW4064
Description: FXR activation was measured using a cell line and procedure obtained from Life Technologies (Cat #K1691). FXR-UAS-bla HEK 293T cells contain a human Farnesoid X receptor ligand-binding domain/Gal4 DNA binding domain chimera stably integrated into the CellSensor® UAS-bla HEK 293T cell line. The CellSensor® UAS-bla HEK 293T contains a beta-lactamase reporter gene under control of a UAS response element stably integrated into HEK 293T cells. Activation of FXR by bound ligands results in transcriptional activation of the beta-lactamase reporter gene, which is detected via assay of beta-lactamase activity. Cells are harvested and diluted into assay medium containing phenol red-free DMEM supplemented with 2% Charcoal-stripped FBS, pyruvate, non-essential amino acids. Cells are then transferred to a 384 well assay plate. Test compounds are dissolved in DMSO and a 3-fold serial dilution series is generated, then further diluted into assay medium. […] A FRET-based […] is loaded into cells as its acetomethoxy ester. Intracellular esterases liberate free CCF4, a cephalosporin core linking 7-hydroxycoumarin to fluorescein. In the presence of beta-lactamase activity produced in the presence of FXR agonists, cleavage of CCF4 spatially separates the two dyes and disrupts FRET, so that exciting the coumarin at 409 nm now produces a blue fluorescence signal at 447 nm. The change in FRET signal is plotted against the test compound concentration and fit to a 3-parameter logistical equation.

[2] = molecular target: ligand binding domain of human FXR (Homo sapiens (Human), UniProt Q96RI1); experiment: FXR ligand binding assay (LanthaScreen FRET); conditions: for Emax: read-out: % Efficacy; for FXR pEC50 / % Efficacy: FXR ligand binding assay; for FXR pEC50: -log EC50; for % Efficacy: extent of activation relative to GW4064;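 for all read-outs here: TR-FRET coactivator recruitment: ligand-induced binding of fluorescein-labelled SRC2-2 peptide to GST-tagged FXR LBD detected via Tb anti-GST antibody, serial compound dilutions, 3-parameter logistic fit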
Chain of ligand binding domain of human FXR (Q96RI1 262-486): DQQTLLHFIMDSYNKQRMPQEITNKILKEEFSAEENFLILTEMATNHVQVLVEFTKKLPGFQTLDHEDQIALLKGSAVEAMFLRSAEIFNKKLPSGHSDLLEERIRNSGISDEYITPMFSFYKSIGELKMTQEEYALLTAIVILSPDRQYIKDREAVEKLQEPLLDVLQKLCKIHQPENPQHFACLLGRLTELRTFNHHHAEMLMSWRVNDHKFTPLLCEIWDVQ

Chain of human Farnesoid X receptor ligand-binding domain/Gal4 DNA binding domain chimera (Q96RI1 262-486, stated change not applied): as the sequence (Q96RI1 262-486) above

| FXR pEC50 [1] | % Efficacy [1] [%] | % Efficacy [2] [%] | Compound | Emax [1] [%] | EC50 [1] [nM] | Emax [2] [%] | FXR pEC50 [2] |
| --- | --- | --- | --- | --- | --- | --- | --- |
|  |  |  | CN1c2cc(N3[C@@H]4CC[C@H]3C[C@@H](OC(=O)c3c(-c5c(Cl)cccc5Cl)noc3C3CC3)C4)ccc2C(=O)C1(F)F [Compound I-30, (1R,3R,5S)-8-(2,2-difluoro-1-methyl-3-oxo-2,3-dihydro-1H-indol-6-yl)-8-azabicyclo[3.2.1]octan-3-yl 5-cyclopropyl-3-(2,6-dichlorophenyl)-1,2-oxazole-4-carboxylate] | 82 | 100 | 40 |  |
|  |  |  | O=C(O)CNC(=O)c1cc(F)c2nc(N3[C@@H]4CC[C@H]3C[C@@H](OC(=O)c3c(-c5c(Cl)cccc5Cl)noc3C3CC3)C4)sc2c1 [Compound I-4, 2-({2-[(1R,3R,5S)-3-[5-cyclopropyl-3-(2,6-dichlorophenyl)-1,2-oxazole-4-carbonyloxy]-8-azabicyclo[3.2.1]octan-8-yl]-4-fluoro-1,3-benzothiazol-6-yl}formamido)acetic Acid] | 109 | 794 | 76 |  |
| 7.4 | 108 | 71 | O=C(O)c1cc(F)c2nc(N3[C@@H]4CC[C@H]3C[C@@H](OC(=O)c3c(-c5c(Cl)cccc5OC(F)F)noc3C3CC3)C4)sc2c1 [Compound I-15, 2-[(1R,3R,5S)-3-{3-[2-chloro-6-(difluoromethoxy)phenyl]-5-cyclopropyl-1,2-oxazole-4-carbonyloxy}-8-azabicyclo[3.2.1]octan-8-yl]-4-fluoro-1,3-benzothiazole-6-carboxylic Acid] |  |  |  | 7.4 |
| 7.6 |  |  | CC(C)(C)c1onc(-c2c(Cl)cccc2Cl)c1C(=O)OC1C[C@H]2CC[C@@H](C1)N2c1nc2c(F)cc(C(=O)O)cc2s1 (single isomer, unassigned) [Compound I-25] |  |  |  | 7.2 |
|  |  |  | O=C(O)c1cc(F)cc(S(=O)(=O)N2[C@@H]3CC[C@H]2C[C@@H](OC(=O)c2c(-c4c(Cl)cccc4Cl)noc2C2CC2)C3)c1 [Compound I-56, 3-{[(1R,3R,5S)-3-[5-cyclopropyl-3-(2,6-dichlorophenyl)-1,2-oxazole-4-carbonyloxy]-8-azabicyclo[3.2.1]octan-8-yl]sulfonyl}-5-fluorobenzoic Acid] | 78 | 631 | 56 |  |
|  |  |  | CCCS(=O)(=O)NC(=O)c1cc(F)c2nc(N3[C@@H]4CC[C@H]3C[C@@H](OC(=O)c3c(-c5c(Cl)cccc5Cl)noc3C3(F)CC3)C4)sc2c1 [Compound I-62, (1R,3R,5S)-8-{4-fluoro-6-[(propane-1-sulfonyl)carbamoyl]-1,3-benzothiazol-2-yl}-8-azabicyclo[3.2.1]octan-3-yl 3-(2,6-dichlorophenyl)-5-(1-fluorocyclopropyl)-1,2-oxazole-4-carboxylate] | 107 | 20 | 145 | 7.4 |
|  |  |  | O=C(O)c1cc(OC(F)(F)F)c2nc(N3[C@@H]4CC[C@H]3C[C@@H](OC(=O)c3c(C56CCC(CC5)CC6)noc3C3CC3)C4)sc2c1 [Compound I-57, 2-[(1R,3R,5S)-3-(3-{bicyclo[2.2.2]octan-1-yl}-5-cyclopropyl-1,2-oxazole-4-carbonyloxy)-8-azabicyclo[3.2.1]octan-8-yl]-4-(trifluoromethoxy)-1,3-benzothiazole-6-carboxylic Acid] | 33 | 398 | 26 |  |
|  |  |  | O=C(O)c1ccc(N2[C@@H]3CC[C@H]2C[C@@H](OC(=O)c2c(-c4c(Cl)cccc4Cl)noc2C2CC2)C3)cc1F [Compound I-41, 4-[(1R,3R,5S)-3-[5-cyclopropyl-3-(2,6-dichlorophenyl)-1,2-oxazole-4-carbonyloxy]-8-azabicyclo[3.2.1]octan-8-yl]-2-fluorobenzoic acid] | 117 | 20 | 92 | 7.7 |
| 7.5 | 98 | 64 | O=C(O)c1cc(F)c2nc(N3[C@@H]4CC[C@H]3C[C@@H](OC(=O)c3c(-c5c(Cl)cccc5Cl)noc3C3CCC3)C4)sc2c1 [Compound I-24, 2-[(1R,3R,5S)-3-[5-cyclobutyl-3-(2,6-dichlorophenyl)-1,2-oxazole-4-carbonyloxy]-8-azabicyclo[3.2.1]octan-8-yl]-4-fluoro-1,3-benzothiazole-6-carboxylic Acid] |  |  |  | 7.9 |
|  |  |  | CS(=O)(=O)NC(=O)c1ccc(N2[C@@H]3CC[C@H]2C[C@@H](OC(=O)c2c(-c4c(Cl)cccc4Cl)noc2C2CC2)C3)c(Cl)c1 [Compound I-52, (1R,3R,5S)-8-[2-chloro-4-(methanesulfonylcarbamoyl)phenyl]-8-azabicyclo[3.2.1]octan-3-yl 5-cyclopropyl-3-(2,6-dichlorophenyl)-1,2-oxazole-4-carboxylate] | 109 | 15.8 | 110 |  |
|  |  |  | O=C(O)c1ccc(N2[C@@H]3CC[C@H]2C[C@@H](OC(=O)c2c(-c4c(Cl)cccc4Cl)noc2C2CC2)C3)cc1 [Compound I-34, 4-[(1R,3R,5S)-3-[5-Cyclopropyl-3-(2,6-dichlorophenyl)-1,2-oxazole-4-carbonyloxy]-8-azabicyclo[3.2.1]octan-8-yl]benzoic Acid] | 107 | 20 | 79 |  |
| 6.4 | 86 | 34 | O=C(Cc1c(-c2c(Cl)cccc2Cl)noc1C1CC1)O[C@H]1C[C@H]2CC[C@@H](C1)N2c1nc2c(F)cc(C(=O)O)cc2s1 [Compound I-32, 2-[(1R,3R,5S)-3-({2-[5-cyclopropyl-3-(2,6-dichlorophenyl)-1,2-oxazol-4-yl]acetyl}oxy)-8-azabicyclo[3.2.1]octan-8-yl]-4-fluoro-1,3-benzothiazole-6-carboxylic Acid] |  |  |  | 7.4 |
|  |  |  | CS(=O)(=O)NC(=O)c1ccc(N2[C@@H]3CC[C@H]2C[C@@H](OC(=O)c2c(-c4c(Cl)cccc4Cl)noc2C2CC2)C3)cc1 [Compound I-44, (1R,3R,5S)-8-[4-(methanesulfonylcarbamoyl)phenyl]-8-azabicyclo[3.2.1]octan-3-yl 5-cyclopropyl-3-(2,6-dichlorophenyl)-1,2-oxazole-4-carboxylate] | 117 | 6.31 | 124 |  |
|  |  |  | CCc1cc(C(=O)O)cc2sc(N3[C@@H]4CC[C@H]3C[C@@H](OC(=O)c3c(-c5c(Cl)cccc5Cl)noc3C3CC3)C4)nc12 [Compound I-60, 2-[(1R,3R,5S)-3-[5-cyclopropyl-3-(2,6-dichlorophenyl)-1,2-oxazole-4-carbonyloxy]-8-azabicyclo[3.2.1]octan-8-yl]-4-ethyl-1,3-benzothiazole-6-carboxylic Acid] | 104 | 6.31 | 119 | 7 |

| Compound | FXR pEC50 [1] | % Efficacy [1] [%] | % Efficacy [2] [%] | Emax [1] [%] | EC50 [1] [nM] | Emax [2] [%] | FXR pEC50 [2] |
| --- | --- | --- | --- | --- | --- | --- | --- |
| O=C(O)c1cc(F)c2nc(N3[C@@H]4CC[C@H]3C[C@@H](OC(=O)c3c(C5CCC6(CC5)CC6)noc3C3CC3)C4)sc2c1 [Compound I-19, 2-[(1R,3R,5S)-3-(5-cyclopropyl-3-{spiro[2.5]octan-6-yl}-1,2-oxazole-4-carbonyloxy)-8-azabicyclo[3.2.1]octan-8-yl]-4-fluoro-1,3-benzothiazole-6-carboxylic Acid] | 6.8 | 79 | 55 |  |  |  | 7.2 |
